According to US6930208B2, “3-Keto- or 3- oxime-ether-substituted benzoylcyclohexanediones” (Bayer CropScience GmbH, priority 2002, dated 2005):

Columns and labels:
Experiment in all cases: Plant tolerance (greenhouse, post-emergence)
Format in all cases: in vivo
Conditions in all cases: visual scoring four to five weeks after application
[1] = test system: maize
Procedure: (§1) Seeds of mono- and dicotyledonous harmful plants are placed in sandy loam in cardboard pots, covered with soil and grown in the greenhouse under good growth conditions. 2 to 3 weeks after sowing, the test plants are treated in the three-leaf stage. The compounds according to the invention, which are formulated as wettable powders or as emulsion concentrates, are sprayed at various dosages onto the surface of the green plant parts at an application rate of 600 to 800 l of water per ha (converted). After the test plants have been left to stand in the greenhouse for 3 to 4 weeks under optimal growth conditions, the effect of the compounds is scored visually. The chosen compounds according to the invention have an outstanding activity against a broad spectrum of economically important monocotyledonous and dicotyledonous harmful plants.
(§2) In further greenhouse experiments, seeds of crop plants and of monocotyledonous and dicotyledonous harmful plants are placed in sandy loam, covered with soil and placed in the greenhouse until the plants have developed two to three true leaves. Then, they are treated with the compounds of the formula (I) according to the invention as described above under item 1. […] Thus, for example, the compounds of examples Nos. 4.16 and 4.98 cause, at a dosage of 320 g/ha, no damage in wheat, rice and maize. The compounds of examples Nos. 1.4, 1.8, 4.16, 4.19 and 4.98 caused, at 80 g/ha, no damage in wheat, rice and maize.

[2] = test system: rice
Procedure: as §1, §2

[3] = test system: wheat
Procedure: as §1, §2

CCC(=O)COc1c(S(C)(=O)=O)ccc(C(=O)C2=C(O)CCCC2=O)c1Cl [Example 1.4]
no damage: damage in maize ([1]; 80 g/ha) | damage in rice ([2]; 80 g/ha) | damage in wheat ([3]; 80 g/ha)

CC1(C)CC(=O)C(C(=O)c2ccc(S(C)(=O)=O)c(OCC(=O)C(C)(C)C)c2Cl)=C(O)C1 [Example 1.8]
no damage: damage in maize ([1]; 80 g/ha) | damage in rice ([2]; 80 g/ha) | damage in wheat ([3]; 80 g/ha)

CCON=C(C)COc1c(S(C)(=O)=O)ccc(C(=O)C2=C(O)CCCC2=O)c1Cl [Example 4.16]
no damage: damage in maize ([1]; 80 g/ha) | damage in maize ([1]; 320 g/ha) | damage in rice ([2]; 80 g/ha) | damage in rice ([2]; 320 g/ha) | damage in wheat ([3]; 80 g/ha) | damage in wheat ([3]; 320 g/ha)

C=CCON=C(C)COc1c(S(C)(=O)=O)ccc(C(=O)C2=C(O)CCCC2=O)c1Cl [Example 4.19]
no damage: damage in maize ([1]; 80 g/ha) | damage in rice ([2]; 80 g/ha) | damage in wheat ([3]; 80 g/ha)

CCON=C(CC)COc1c(S(C)(=O)=O)ccc(C(=O)C2=C(O)CCCC2=O)c1Cl [Example 4.98]
no damage: damage in maize ([1]; 80 g/ha) | damage in maize ([1]; 320 g/ha) | damage in rice ([2]; 80 g/ha) | damage in rice ([2]; 320 g/ha) | damage in wheat ([3]; 80 g/ha) | damage in wheat ([3]; 320 g/ha)
